Reference: ChEMBL document CHEMBL4602703, “Lead Optimization of a Pyrrole-Based Dihydroorotate Dehydrogenase Inhibitor Series for the Treatment of Malaria” (J Med Chem, 2020)

Experiments:
[1] = Inhibition of N-terminal His6-tagged Plasmodium falciparum DHODH expressed in Escherichia coli BL21(DE3) cells using L-DHO as substrate by DCIP dye based assay
[2] = Intrinsic clearance in human liver microsomes assessed as per mg protein; type: ADME, Microsome
[3] = Intrinsic clearance in mouse liver microsomes assessed as per mg protein; type: ADME, Microsome; settings: microsomes
Albumin = Albumin (Homo sapiens, UniProt P02768); assay: Binding affinity to albumin (unknown origin) by chromatographic method; type: ADME; settings: albumin, read-out: PB (converted)
physchem = settings: octanol/water, pH 7.4
Plasmodium falciparum = assay: microbe, parasite or virus in culture; settings: 3D7, 72 h
[4] = molecular target: Dihydroorotate dehydrogenase (quinone), mitochondrial (Homo sapiens, UniProt Q02127)
Dihydroorotate dehydrogenase (quinone), mitochondrial, sequence (Q02127 whole entry): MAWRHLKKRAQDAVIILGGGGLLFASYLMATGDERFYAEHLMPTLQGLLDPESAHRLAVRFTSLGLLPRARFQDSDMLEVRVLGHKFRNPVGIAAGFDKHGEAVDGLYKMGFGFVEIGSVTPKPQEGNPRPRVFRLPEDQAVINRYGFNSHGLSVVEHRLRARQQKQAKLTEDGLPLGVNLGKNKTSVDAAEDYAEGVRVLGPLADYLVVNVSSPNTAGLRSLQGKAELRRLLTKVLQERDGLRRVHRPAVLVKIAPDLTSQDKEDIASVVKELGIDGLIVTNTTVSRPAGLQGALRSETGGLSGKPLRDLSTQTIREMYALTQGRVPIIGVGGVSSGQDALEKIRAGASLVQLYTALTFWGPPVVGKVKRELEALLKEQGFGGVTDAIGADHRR

Albumin, sequence (P02768 whole entry): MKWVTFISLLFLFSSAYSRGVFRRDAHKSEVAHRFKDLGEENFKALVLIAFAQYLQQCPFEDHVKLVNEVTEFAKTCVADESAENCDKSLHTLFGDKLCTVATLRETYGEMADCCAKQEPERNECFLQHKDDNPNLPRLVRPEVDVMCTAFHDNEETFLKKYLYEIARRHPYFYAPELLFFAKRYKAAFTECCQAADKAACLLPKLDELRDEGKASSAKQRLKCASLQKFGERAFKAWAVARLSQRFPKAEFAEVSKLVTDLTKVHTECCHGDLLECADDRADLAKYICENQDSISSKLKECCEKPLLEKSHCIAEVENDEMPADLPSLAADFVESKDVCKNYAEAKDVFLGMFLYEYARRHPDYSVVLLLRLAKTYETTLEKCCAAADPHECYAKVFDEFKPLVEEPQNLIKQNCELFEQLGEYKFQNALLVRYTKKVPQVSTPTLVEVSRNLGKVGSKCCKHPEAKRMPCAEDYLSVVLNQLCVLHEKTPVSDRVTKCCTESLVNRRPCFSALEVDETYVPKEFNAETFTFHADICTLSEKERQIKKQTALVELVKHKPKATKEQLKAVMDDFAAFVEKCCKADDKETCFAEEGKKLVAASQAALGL

SMILES	IC50 [1]	microsomal CLint [2]	microsomal CLint [3]	fraction unbound (Albumin)	logD (physchem)	EC50 (Plasmodium falciparum)	IC50 [4]
Cc1[nH]c(C(=O)NC2CC2)cc1Cc1cnc(C(F)(F)F)nc1	> 100000 nM	< 7 µL/min/mg	8 µL/min/mg	0.555	2.5	> 10000 nM	
CCOC(=O)c1[nH]c(C)c(Cc2ccc(OCC)cc2)c1C		188 µL/min/mg	470 µL/min/mg		4.5	230 to 250 nM	> 100000 nM
Cc1[nH]c(C(=O)NC2CC2)c(C)c1Cc1ccc(C(F)(F)F)nc1		15 µL/min/mg	33 µL/min/mg	0.172	3	36 nM	> 100000 nM
Cc1c(Cc2ccc(C(F)(F)F)nc2)c[nH]c1C(=O)NC(C)C	80 nM					13 nM	> 100000 nM
Cc1c(Cc2ccc(C(F)(F)F)nc2)c[nH]c1C(=O)NC1CC(F)C1 (stereo unspecified)	320 nM					170 nM	
CCOC(=O)c1[nH]cc(Cc2ccc(C#N)nc2)c1C	630 nM					200 nM	
CCCC(=O)c1[nH]cc(Cc2ccc(C(F)(F)F)nc2)c1C	98 nM					65 nM	> 100000 nM
Cc1[nH]c(C(=O)N2CCC2)c(C)c1Cc1ccc(C(F)(F)F)cn1	1800 nM					1000 nM	> 100000 nM
Cc1[nH]c(C(=O)NC2CCNCC2)cc1Cc1ccc(C(F)(F)F)nc1	> 100000 nM					> 10000 nM	
CCOC(=O)c1[nH]cc(Cc2ccc(C(F)(F)F)cc2)c1C	130 nM					60 nM	> 100000 nM
CCCNC(=O)c1[nH]c(C)c(Cc2ccc(C(F)(F)F)cc2)c1C	300 nM					110 nM	> 100000 nM
Cc1[nH]c(C(=O)NC2CC2)c(C)c1C(=O)c1ccc(C(F)(F)F)cn1	> 100000 nM	8 µL/min/mg	24 µL/min/mg	0.496	2.4	10000 to 20000 nM	
CCNC(=O)c1[nH]c(C)c(Cc2ccc(C(F)(F)F)cc2)c1C	140 nM					51 nM	> 100000 nM
Cc1c(Cc2ccc(C(F)(F)F)nc2)c[nH]c1C(=O)NC1CC(F)(F)C1	3600 nM					1300 nM	
Cc1[nH]c(C(=O)NC2CN(C)C2)cc1Cc1ccc(C(F)(F)F)nc1	> 100000 nM					> 20000 nM	
Cc1c(Cc2cccnc2)c[nH]c1C(=O)NC1CC1	> 100000 nM	19 µL/min/mg	138 µL/min/mg	0.268		> 10000 nM	
Cc1[nH]c(C(=O)O)c(C)c1Cc1ccc(C(F)(F)F)cc1						> 10000 nM	
Cc1c(Cc2ccc(C(F)(F)F)nc2)c[nH]c1C(=O)NC(C)(C)C	110 nM					51 nM	> 100000 nM
Cc1c(Cc2ccc(C(F)(F)F)cc2F)c[nH]c1C(=O)NC1CC1	44 nM	15 µL/min/mg	184 µL/min/mg	0.03	3.8	16 nM	> 100000 nM
Cc1c(Cc2ccc(C(F)(F)F)cc2Cl)c[nH]c1C(=O)NC1CC1	17 nM	14 µL/min/mg	264 µL/min/mg	0.019	4.1	20 nM	> 100000 nM
Cc1c(Cc2ccc(C(F)(F)F)cc2)c[nH]c1C(=O)NC1CC1	48 nM	19 µL/min/mg	173 µL/min/mg	0.029	3.7	18 nM	> 100000 nM

SMILES	IC50 [1]	microsomal CLint [2]	microsomal CLint [3]	fraction unbound (Albumin)	logD (physchem)	EC50 (Plasmodium falciparum)	IC50 [4]
Cc1[nH]c(C(=O)N2CCCC2)cc1Cc1ccc(C(F)(F)F)nc1	> 100000 nM	226 µL/min/mg	138 µL/min/mg	0.185	3.2	> 10000 nM	
Cc1[nH]c(C(=O)NC(C)(C)C)cc1Cc1ccc(C(F)(F)F)nc1	5700 nM					3500 nM	
Cc1[nH]c(C(=O)NC2CC2)cc1Cc1ccc(C(F)(F)F)nc1	10000 nM	36 µL/min/mg	41 µL/min/mg	0.274	2.8	3600 nM	> 100000 nM
Cc1[nH]c(C(=O)NC(C)C)cc1Cc1ccc(C(F)(F)F)nc1	2800 nM					1900 nM	
CCCCNC(=O)c1[nH]c(C)c(Cc2ccc(C(F)(F)F)cc2)c1C	9900 nM					710 nM	> 100000 nM
Cc1[nH]c(C(=O)NC2CC2)c(C)c1Cc1ccc(C(F)(F)F)cn1	440 nM					340 nM	
O=C(NC1CC1)c1[nH]cc(Cc2ccc(C(F)(F)F)nc2)c1CO	4300 nM					1200 nM	
CCCNC(=O)c1[nH]c(C)c(Cc2ccc(C(F)(F)F)nc2)c1C	72 nM	172 µL/min/mg	64 µL/min/mg	0.155	3.2	47 nM	> 100000 nM
Cc1c(C(=O)NC2CC2)[nH]c(C(F)(F)F)c1Cc1ccc(C(F)(F)F)nc1	1600 nM					770 nM	
COc1cc(C(F)(F)F)ccc1Cc1c[nH]c(C(=O)NC2CC2)c1C	110 nM					260 nM	> 100000 nM
Cc1c(Cc2ccc(C(F)(F)F)nc2)c[nH]c1C(=O)N1CCC1	170 nM	< 7 µL/min/mg	192 µL/min/mg	0.341	2.7	82 nM	> 100000 nM
CCOC(=O)c1[nH]c(C)c(Cc2cccc(OCC)c2)c1C	830 nM					530 nM	> 100000 nM
Cc1c(Cc2ccc(C(F)(F)F)nc2)c[nH]c1C(=O)NCC(F)(F)F	210 nM	15 µL/min/mg	57 µL/min/mg	0.181	3.3	44 to 59 nM	> 100000 nM
Cc1[nH]c(C(=O)N2CCC2)c(C)c1Cc1ccc(C(F)(F)F)nc1	140 nM	31 µL/min/mg	53 µL/min/mg	0.228	2.9	130 nM	
Cc1c(Cc2c(F)cc(C(F)(F)F)cc2F)c[nH]c1C(=O)NC1CC1	1200 nM					420 nM	
Cc1[nH]c(C(=O)N2CCCCC2)cc1Cc1ccc(C(F)(F)F)nc1	> 100000 nM	173 µL/min/mg	93 µL/min/mg	0.125	3.5	> 20000 nM	
O=C(NC1CC1)c1cc(Cc2ccc(C(F)(F)F)nc2)c[nH]1	2500 nM	31 µL/min/mg	96 µL/min/mg	0.333	2.6	500 to 1700 nM	> 100000 nM
Cc1[nH]c(C(=O)NC2CCN(C)CC2)cc1Cc1ccc(C(F)(F)F)nc1	> 100000 nM					> 10000 nM	
CCOC(=O)c1[nH]cc(Cc2ccc(C(F)(F)F)cc2OC)c1C	1100 nM					810 nM	
Cc1[nH]c(C(=O)NC2CCC2)c(C)c1Cc1ccc(C(F)(F)F)cn1	410 nM					470 to 680 nM	> 100000 nM
Cc1[nH]c(C(=O)NC2CCOCC2)cc1Cc1ccc(C(F)(F)F)nc1	> 100000 nM					> 10000 nM	

SMILES	IC50 [1]	microsomal CLint [2]	microsomal CLint [3]	fraction unbound (Albumin)	logD (physchem)	EC50 (Plasmodium falciparum)	IC50 [4]
CCN(CC)C(=O)c1[nH]c(C)c(Cc2ccc(C(F)(F)F)nc2)c1C	13000 nM					> 10000 nM	
Cc1c(C(O)c2ccc(C(F)(F)F)nc2)c[nH]c1C(=O)NC1CC1 (racemic)	74 nM	20 µL/min/mg	40 µL/min/mg	0.105	3.2	44 nM	> 100000 nM
Cc1[nH]c(C(=O)NC2CNC2)cc1Cc1ccc(C(F)(F)F)nc1	> 100000 nM					> 20000 nM	
CCOC(=O)c1[nH]c(C)c(Cc2ccc(C(C)C)cc2)c1C	570 nM					470 nM	> 100000 nM
Cc1c(Cc2ccc(C(F)(F)F)nc2)c[nH]c1C(=O)N1CC(F)C1	120 nM	7 µL/min/mg	145 µL/min/mg			51 nM	> 100000 nM
Cc1c(Cc2ccc(C(F)(F)F)nc2)c[nH]c1C(=O)N1CCCC1	9800 nM					4800 nM	
Cc1c(Cc2ccc(C(F)(F)F)nc2)c[nH]c1C(=O)NS(C)(=O)=O	> 100000 nM					> 100000 nM	
CCOC(=O)c1c(C)c(Cc2ccc(C(F)(F)F)cc2)c(C)n1C	> 100000 nM						
Cc1c(Cc2ccc(C(F)(F)F)nc2)c[nH]c1C(=O)C1CC1	18 nM					9.9 nM	> 100000 nM
CCOC(=O)c1[nH]c(C)c(Cc2ccc(C(F)(F)F)cn2)c1C	300 nM					100 nM	> 100000 nM
COCc1c(Cc2ccc(C(F)(F)F)nc2)c[nH]c1C(=O)NC1CC1	450 nM					240 nM	> 100000 nM
Cc1[nH]c(C(=O)N(C)C)c(C)c1Cc1ccc(C(F)(F)F)nc1	> 30000 nM					> 10000 nM	
CCOC(=O)c1[nH]cc(Cc2ccc(C(F)(F)F)cc2Cl)c1C	42 nM					29 nM	> 100000 nM
CCOC(=O)c1[nH]c(C)c(Cc2cc(OC)cc(OC)c2)c1C	2300 nM					10000 nM	> 100000 nM
Cc1[nH]c(C(=O)NC2CCC2)c(C)c1Cc1ccc(C(F)(F)F)nc1	42 to 72 nM					66 nM	> 100000 nM
Cc1c(Cc2ccc(C(F)(F)F)nc2)c[nH]c1C(=O)NC1(C(F)(F)F)CC1	9300 nM					3900 nM	
CCOC(=O)c1[nH]cc(Cc2ccc(C(F)(F)F)cc2F)c1C	35 nM					28 nM	> 100000 nM
CCOC(=O)c1[nH]cc(Cc2c(F)cc(C(F)(F)F)cc2F)c1C	> 30000 nM					> 10000 nM	
CCOC(=O)c1[nH]c(C)c(C(=O)c2ccc(C(F)(F)F)cn2)c1C	21000 nM					6500 nM	
Cc1c(Cc2cnc(C(F)(F)F)nc2)c[nH]c1C(=O)NC1CC1		< 7 µL/min/mg			2.5	390 nM	> 100000 nM
